Measurements taken from patent US5008252A, “Process for inhibiting herpes simplex virus-specified thymidine kinase” (The University of North Carolina at Chapel Hill, priority 1987, dated 1991).
Values joined by “and” are separate entries in the source; they are usually repeats but may differ in a detail not shown here. Equal values may be shown once.

Legend:
[1] = molecular target: HSV-1 (KOS) dThd kinase in infected HeLa BU cells (Human alphaherpesvirus 1 strain KOS, UniProt P17402); experiment: Intracellular dThd kinase activity ([14C]dThd phosphorylation); type: cell-based, HSV-1 (strain KOS)
Procedure: (§1) Intracellular dThd kinase activity. HeLa S3 or HeLa BU cells (1.5×10^6 /ml) were mock infected or infected with HSV-1 or HSV-2at 3 PFU/cell and incubated at 37° C. for a 1 h adsorption period. The medium was then removed, and the cells were washed with growth medium and resuspended at a cell density of 5×10^5 cells/ml in RPMI 1640 medium supplemented with kanamycin (100 μg/ml) and 5% dialyzed fetal bovine serum. At 9 h post-HSV infection, [14C]dThd (0.16 μCi/ml; 1 μM dThd) and different amounts of 5'-Et-dThd were added to the medium depending on experimental conditions. At the end of the labeling period (1 h), the cells were pelleted by centrifugation, washed with phosphate-buffered-saline (PBS) and resuspended in a small volume of PBS. Aliquots were then pipetted directly onto DE81 discs which were immediately washed in 100% EtOH. The DE81 discs were washed two additional times in 100% EtOH, and then radioactivity associated with the discs was measured by scintillation counting in 5 ml of aqueous counting fluid. In this manner, total intracellular dThd kinase activity was determined from the sum of radioactive acid soluble dThd nucleotides plus the acid insoluble dTMP associated with DNA, both precipitated directly on the DE81 discs.

[2] = molecular target: HSV-1 B3 dThd kinase in infected HeLa BU cells (Human alphaherpesvirus 1 strain SC16, UniProt P06479); experiment: as above; type: cell-based, HSV-1 (strain B3); details: intracellular [14C]dThd phosphorylation
Procedure: as §1

virus DNA synthesis = experiment: Virus DNA synthesis, isopycnic centrifugation of 32PO4-labeled DNA; type: cell-based; details: 5'-Et-dThd by itself; 32PO4-labeled virus DNA separated from host DNA
Text: By itself, 5'-Et-dThd had no effect on virus yield (Table II) and on virus DNA synthesis as determined from isopycnic centrifugation studies where ^32 PO4 -labeled virus DNA was separated from host DNA. Nucleoside analogs have been developed based on the "selective alternate substrate" strategy, and depend on viral dThd kinase for their antiviral activity. The effect of 5'-Et-dThd on the antiviral efficacy of five such analogs, ACV, 9-(1, 3-dihydroxy-2-propoxymethyl) guanine (DHPG), fluoroido-arabinosyl-cytosine (FIAC), BVDU and 5'-amino-dThd (5'-NH2 -dThd) has been examined. The effect of 5'-Et-dThd on the activity of the five agents was determined by the virus yield assay using HSV-1 (strain KOS)-infected HeLa BU cells. At 100 μM, 5'-Et-dThd reversed the antiviral activity of ACV (15 μM), DHPG (2 μM), FIAC (1 μM), BVDU (1 μM) and 5'-NH2 -dThd (500 μM)35-, 100-, 98-, 15- and 250-fold, respectively (Table II). […] The results further indicate that the use of 5'-Et-dThd in the prophylaxis/prevention of virus reactivation would require a sequential order when used with virus dThd kinase-dependent antiviral agents.

mammalian cell growth = experiment: Cell growth inhibition; type: cell-based
Procedure: Cell and virus growth inhibition. Cell growth inhibition and the virus yield assay were performed in accordance with the protocol described by Cheng, Y.-C., Grill, S.P., Ruth, J. and Bergstrom, D. E. (Antimicrob. Agents Chemother. 18:957-961 (1980)) with the exceptions that all studies were done using 5% dialyzed fetal bovine serum; the multiplicity of infection was 3 PFU/cell and Vero cells were used instead of CV-1 cells for titration in the virus yield assays.

With 5'-ethynylthymidine [5'-Et-dThd] the “dThd phosphorylating activity, % of untreated control” value ([1]; 25 μM, HSV-1-infected HeLa BU, 9 h post infection, 1 h labeling) was 12.5%, the “inhibition of dThd kinase-mediated [14C]dThd phosphorylation” value ([1]; 100 μM, HSV-1-infected HeLa BU cells, 9 h post infection) was 97% and the IC50 ([1]; HSV-1 KOS, intracellular [14C]dThd phosphorylation, HeLa BU cells) was 3 µM. For the same substance, the IC50 [2] was < 10 µM and 6 µM, the “effect on virus DNA synthesis” value (virus DNA synthesis) was “no effect” and the “inhibition of mammalian cell growth” value (mammalian cell growth) was “nor does the analog inhibit mammalian cell growth”.
